Test results taken from patent publication US20160002291A1, “Active Agent Prodrugs with Heterocyclic Linkers” (Signature Therapeutics, Inc., priority 2011, published 2016).

Experiments:
[1] = Spacer leaving group cyclization release rate in pH 7.4 phosphate buffer (Example 39); conditions: 2.18 mM, 50 mM pH 7.4 phosphate buffer, 20° C.
[2] = Oral administration of oxycodone prodrugs co-dosed with trypsin inhibitor Compound 109 to rats (Example 40); assay type: in vivo; conditions: co-dosed PO with KC-12 or KC-17 to rats
[3] = Oral administration of hydrocodone prodrugs co-dosed with Compound 109 to rats (Example 46); conditions: co-dosed PO with KC-40 or KC-50 to rats
[4] = Pharmacokinetics following PO administration of Compound KC-55 to rats (Example 48)
[5] = biological target: T1, trypsin (Bos taurus, UniProt P00760); experiment: In vitro trypsin-mediated cleavage of hydrocodone prodrugs (Example 44); assay type: biochemical, bovine; conditions: conditions as Example 39
T1 construct: purchased Sigma-Aldrich T8003; host or cells: bovine pancreas
T1 sequence (P00760 24-246): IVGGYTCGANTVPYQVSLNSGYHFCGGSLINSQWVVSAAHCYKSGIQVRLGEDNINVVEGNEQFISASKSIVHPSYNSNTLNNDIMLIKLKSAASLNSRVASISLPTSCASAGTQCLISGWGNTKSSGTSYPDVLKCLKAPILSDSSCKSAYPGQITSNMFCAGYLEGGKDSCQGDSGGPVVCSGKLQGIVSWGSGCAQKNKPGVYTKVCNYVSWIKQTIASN
Protocol: The reactions were conducted at 37° C. for 24 h. Samples were collected at specified time points, transferred into 0.5% formic acid in acetonitrile to stop trypsin activity, and stored at less than −70° C. until analysis by LC-MS/MS.

Compound: COc1ccc2c3c1O[C@H]1C(OC(=O)N4CCCCC4CN)=CC[C@@]4(O)[C@@H](C2)N(C)CC[C@]314 (single isomer, unassigned; peak a) [KC-11 peak A, N-(oxycodone-6-enol-carbonyl)piperidine-2-methylamine]
- half-life (cyclization; compound disappearance) [1]: 1.30 ± 0.038 h

Compound: COc1ccc2c3c1O[C@H]1C(OC(=O)N4CCCCC4CN)=CC[C@@]4(O)[C@@H](C2)N(C)CC[C@]314 (single isomer, unassigned; peak b) [KC-11 peak B, N-(oxycodone-6-enol-carbonyl)piperidine-2-methylamine]
- half-life (cyclization; compound disappearance) [1]: 0.876 ± 0.012 h

Compound: N=C(N)c1ccc2cc(OC(=O)c3ccc(N=C(N)N)cc3)ccc2c1 [Compound 109, 6-carbamimidoylnaphthalen-2-yl 4-(diaminomethyleneamino)benzoate]
- effect of trypsin inhibitor on release of oxycodone [2]: attenuate release of oxycodone by prodrugs of the embodiments
- effect of trypsin inhibitor on release of hydrocodone [3]: attenuate release of hydrocodone by prodrugs of the embodiments

Compound: COc1ccc2c3c1O[C@H]1C(OC(=O)N4CCC(C(=O)O)CC4CNC(=O)[C@H](CCCNC(=N)N)NC(=O)CNC(C)=O)=CC[C@@]4(O)[C@@H](C2)N(C)CC[C@]314 (stereo partly drawn) [Compound KC-55, N-(oxycodone-6-enol-carbonyl)-[(2-methylamino)-piperidine-4-carboxylate]-L-arginine-glycine-acetate]
- release of oxycodone on oral administration ([4]; PO to rats): leads to release of oxycodone

Compound: COc1ccc2c3c1O[C@H]1C(=O)CC[C@@]4(O)[C@@H](C2)N(C)CC[C@]314 [Oxycodone, oxycodone, reference compound]
- Cmax ([4]; male, Sprague Dawley, rat, plasma, po, 10 mg/kg): 14.7 ± 6.5 ng/mL

Compound: N-(hydrocodone-6-enol-carbonyl)-(2-methylamino)piperidine-4-carboxylate]-L-arginine-glycine-acetate [Compound KC-40]
- HC formation rate [5]: 0.003 ± 0.00 μmol/h/BAEE U
